This is an account of results in patent publication US20110178171A1, “COMPOUNDS FOR CANCER THERAPY” (China Medical University, priority 2010, published 2011).

Each structure is given as a SMILES string.

In data set [1] the test system is lung cancer cell line A549. In words: MTT growth inhibition assay, A549. Format: cell-based, human. Particulars: A549, lung adenocarcinoma. The protocol:
(§1) The results were determined by three independent experiments.
(§2) Besides, the above assay was also conducted on gastric cancer cell line NCI-N87, liver cancer cell line HepG2 and J5, lung cancer cell line A549, and oral cancer cell line OECM-1.

In the next data set the test system is PC3 cells. In words: MTT growth inhibition assay, PC3. Format: cell-based, human. Particulars: PC3, androgen-independent prostate adenocarcinoma. The protocol: (§3) The LNCaP (androgen-sensitive), PC3 (androgen in-dependent), human prostate cancer and normal human fibroblast 3T3 were obtained from American Type Culture Collection (Manassas, Va.) were maintained with RPMI 1640 medium containing 10% FBS and […] each of penicillin and streptomycin at […] in a humidified atmosphere with 5% CO2.
(§4) The viability of the cells after treated with various chemicals was evaluated using MTT assay preformed in triplicate (Mosmann T. 1983. Rapid colorimetric assay for cellular growth and survival: application to proliferation and cytotoxicity assays”. Journal of immunological methods. 65 (1-2): 55-63). Briefly, the cancer cells (5×10^3) were incubated in 96-well plates containing […] of the culture medium. Cells were permitted to adhere for 12-18 h then washed with phosphate buffered saline (PBS). Solutions were always prepared fresh by dissolving 0.2% DMSO or K8 in culture medium and added to various kind of tumor. After 48 h of exposure, K8 containing medium was removed, washed with PBS and replaced by fresh medium. The cells in each well were then incubated in culture medium with […] MTT for 4 h. After the medium were removed, […] of DMSO and […] of glycine buffer (0.1 M glycine, 0.1 M NaCl, pH 10.5) were added to each well. Absorbance at 570 nm of the maximum was detected by a PowerWave X Microplate ELISA Reader (Bio-TeK Instruments, Winoski, Vt.). The absorbance for DMSO treated cells was considered as 100%. The results were determined by three independent experiments.
Cytotoxicities of Z-K8 (Isochaihulactone) on LNCaP (AR-dependent), and PC3 (AR-independent) tumor cell line were examined in the manner described above. […]
On the technique in general: Tetrazolium assays rely on reduction of a dye to a coloured formazan, in cell work by metabolically active cells.

The test system of data set [2] is LNCaP cells. In words: MTT growth inhibition assay, LNCaP. Particulars: for IC50: LNCaP, androgen-dependent prostate adenocarcinoma. The protocol:
as §3, §4
Cytotoxicity of K8 (Isochaihulactone) on LNCaP cells was examined in the manner described above. The cells were treated with KS (Isochaihulactone), its Z-form, or its E-form of different concentrations ranging from 2.5 to 20 μM for 24 h.
Cytotoxicities of Z-K8 (Isochaihulactone) on LNCaP (AR-dependent), and PC3 (AR-independent) tumor cell line were examined in the manner described above. The cells were treated with the Z- or E-form K8 (Isochaihulactone) of different concentrations ranging from 0.3125 to 5 μM for 24 h.

The test system of data set [3] is liver cancer cell line HepG2. Kind of data set: MTT growth inhibition assay, HepG2. Particulars: HepG2, hepatocarcinoma. Format: cell-based. On the procedure: as §1, §2
In data set [4] the test system is liver cancer cell line J5. Kind of data set: MTT growth inhibition assay, J5. Format: cell-based. Conditions: J5, hepatocarcinoma. The protocol:
as §1, §2

Data set [5] has as its system LNCaP cells. Kind of data set: Cell cycle analysis by flow cytometry. Format: cell-based, human. Particulars: 20 nM. The protocol:
The cell cycle was determined by flow cytometry with DNA staining to reveal the total amount of DNA. Approximately 5×10^5 of cells were incubated in various concentration of isochaihulactone for the indicated time. Cells were harvested by treating the cells with trypsin/EDTA. The cells were collected, washed with PBS, fixed with cold 70% ethanol overnight, and then stained with a solution containing […] PI, 10 mg/ml RNase A, and 0.1% Triton X-100 for 1 h in the dark. The cells will then pass through FACScan flow cytometer (equipped with a 488-nmargon laser) to measure the DNA content. The data was obtained and analyzed with CellQuest 3.0.1 (Becton Dickinson, Franklin Lakes, N.J.) and ModFitLT V2.0 software. The results are shown Table 4 and FIG. 4.
Assays were carried out to examine the effect of Z-K8 in inducing G2/M phase arrest and apoptosis in LNCaP cells. Briefly, the cells were treated with different concentrations of Z-K8 (ranging from 0.25 to 2 μM) for 24 h. The cell cycle analysis was done according to the method described above. As shown in FIG. 4 and Table 4, Z-K8 induced cell cycle G2/M arrest in LNCaP cells.
(In general: A flow cytometer gives signals particle by particle.)

Data set [6] relates to oral cancer cell line OECM-1. Kind of data set: MTT growth inhibition assay, OECM-1. Format: cell-based. Conditions: OECM-1, oral squamous cell carcinoma. On the procedure: as §1, §2
Another data set has as its system LNCaP xenografts. Kind of data set: Antitumor activity in vivo, LNCaP xenograft. Further details: species or system mice. Particulars: for Tumor growth volume (mm^3): 30 mg/kg s.c. days 0-4. On the procedure:
Xenograft mice as a model system to study cytotoxicity effect of isochaihulactone in vivo: the implantation of cancer cells (LNCaP) were carried out similarly to previous reports. Female congenital athymic BALB/c nude (nu/nu) mice were purchased from National Sciences Council (Taipei, Taiwan) and all procedures were performed in compliance with the standard operating procedures of the Laboratory Animal Center of China Medical University (Taichung, Taiwan). All experiments were carried out using 6-8-week old mice weighing 18-22 g. The animals were s.c. implanted with 1×10^7 cell sinto the back of mice. When the tumor reached 80-120 mm3 in volume, animals were divided randomly into control and test groups consisting of six mice per group (day 0). Daily s.c. administration of z-K8, dissolved in a vehicle of 20% Tween 80 in normal saline (v/v) was performed from days 0 to 4 far from the inoculated tumor sites (>1.5 cm). The control group was treated with vehicle only. The mice were weighed three times a week up to days 21-28 to monitor the effects and the same time the tumor volume was determined by measurement of the length (L) and width (W) of the tumor. The tumor volume at day n (TVn) was calculated as TV (mm3)=(L×W^2)/2. The relative tumor volume at day n (RTVn) versus day 0 was expressed according to the following formula: RTVn=TVn/TV0. Tumor regression (T/C(%)) in treated versus control mice was calculated using: T/C(%)=(mean RTV of treated group)/(mean RTV of control group)×100. Xenograft tumors as well as other vital organs of treated and control. The results are shown in Tables 6 and 7 and FIGS. 6 and 7.
Assays were carried out to examine the inhibition of human xenografts growth in vivo by isochaihulactone. Briefly, LNCaP tumor-bearing mice were administered s.c. with vehicle control, 30 mg/kg E-K8, and Z-K8 respectively on days 0-4 for 5 days. The volumes of the tumors were measured. […] Scale bars, […]. Data represent means W S.D. of tumor volume at each time
Assays were carried out to examine the inhibition of human xenografts growth in vivo by Z-K8. Again, LNCaP tumor-bearing mice were administered s.c. with vehicle control, Z-K8 15 mg/kg on days 0-4 for 5 days. The volumes of the tumors were measured. […] Scale bars, […]. Data represent means W S.D. of tumor volume at each time point.

In the case of `COc1cc(/C=C2\C(=O)OC[C@@H]2Cc2ccc3c(c2)OCO3)cc(OC)c1OC` [K8, isochaihulactone], the half-maximal inhibitory concentration (IC50) (commonly the concentration that gives 50% inhibition) in data set [1] was 18.5 µM; with PC3 cells, above 100 µM; in the data set on LNCaP cells [2] it was 4.3 µM; in data set [3] it was above 20 µM; in data set [4], 21.5 µM. The “Viability (%)” value amounted to 67.4% in the data set on LNCaP cells [2] (2.5 µM), 43.6% in the data set with LNCaP cells [2] (5 µM), 40.9% in the data set on LNCaP cells [2] (10 µM) and 21.0% in the data set on LNCaP cells [2] (20 µM).
Take `CC(=O)O[C@H]1C(=O)[C@@]2(C)[C@H]([C@H](OC(=O)c3ccccc3)[C@]3(O)C[C@H](OC(=O)[C@H](O)[C@@H](NC(=O)c4ccccc4)c4ccccc4)C(C)=C1C3(C)C)[C@]1(OC(C)=O)CO[C@@H]1C[C@@H]2O` [toxal, reference compound]: in the data set with LNCaP cells [5], the “Cells in phase (%) G0/G1” value is on record as 16.40%, the “Cells in phase (%) G2/M” value was 40.23%, the “Cells in phase (%) S” value turned out to be 3.95% and the “Cells in phase (%) Sub-G1” value was determined as 11.43%.
With `COc1cc(/C=C2/C(=O)OCC2Cc2ccc3c(c2)OCO3)cc(OC)c1OC` (racemic) [E-K8], the IC50 in data set [1] is above 100 µM; in data set [6], above 1 µM; in the data set on PC3 cells, above 20 µM; with LNCaP cells [2], above 20 µM. The “Viability (%)” value is on record as 86.2% in the data set with LNCaP cells [2] (2.5 µM), 72.9% in the data set with LNCaP cells [2] (5 µM), 69.8% in the data set on LNCaP cells [2] (10 µM) and 65.3% in the data set on LNCaP cells [2] (20 µM). The “Tumor growth volume (mm^3)” value with LNCaP xenografts (day 1 after administration) stood at 0 mm^3; in the data set on LNCaP xenografts (day 4 after administration) it was 118.0 mm^3; with LNCaP xenografts (day 7 after administration), 137.1 mm^3; in the data set with LNCaP xenografts (day 10 after administration), 205.7 mm^3; with LNCaP xenografts (day 13 after administration) it was 313.7 mm^3; with LNCaP xenografts (day 16 after administration), 427.4 mm^3. Further, the “Tumor growth volume (mm^3)” value amounted to 504.7 mm^3 in the data set on LNCaP xenografts (day 19 after administration); 633.5 mm^3 in the data set on LNCaP xenografts (day 22 after administration); 658.6 mm^3 with LNCaP xenografts (day 25 after administration); 834.9 mm^3 with LNCaP xenografts (day 28 after administration); 894.9 mm^3 with LNCaP xenografts (day 31 after administration). For the same molecule, the “tumor growth inhibition, in words” value in the data set on LNCaP xenografts (LNCaP tumor-bearing mice, 30 mg/kg s.c. days 0-4 (FIG. 6)) is reported as “tumor growth inhibition effect”.
